Measured values: ChEMBL document CHEMBL1133583, “Design of cancer-specific antitumor agents based on aziridinylcyclopent[b]indoloquinones” (J Med Chem, 2000)

What was measured:
Assay type in all cases: functional
Breast carcinoma cell = test: In vitro cytotoxicity against breast cancer cells.; settings: Homo sapiens
CNS carcinoma cell = test: In vitro cytotoxicity against CNS cancer cells; settings: Homo sapiens
Colon carcinoma cell = test: In vitro cytotoxicity against colon cancer cells; settings: Homo sapiens
[1] = In vitro cytotoxicity against Leukemia cancer cells.; settings: Homo sapiens, Cancer cell lines
Melanoma cell = test: In vitro cytotoxicity against melanoma cancer cells; settings: Homo sapiens
Homo sapiens = species: Homo sapiens; test: In vitro cytotoxicity against non-small-cell lung cancer cells; settings: Cancer cell lines, read-out: Log LC50 (the source's name) (converted)
Ovarian carcinoma cell = test: In vitro cytotoxicity against ovarian cancer cells; settings: Homo sapiens
Prostatic carcinoma cell = test: In vitro cytotoxicity against prostate cancer cells.; settings: Homo sapiens, read-out: Log LC50 (the source's name) (converted)
Renal cancer cell line = test: (§1) In vitro cytotoxicity against renal cancer cells.; settings: Homo sapiens, read-out: Log LC50 (the source's name) (converted)
[2] = as §1; settings: Homo sapiens, Cancer cell lines; read-out: Log LC50 (the source's name) (converted)

Compound	LC50 (concentration killing 50% of cells) (Breast carcinoma cell) [µM]	LC50 (CNS carcinoma cell) [µM]	LC50 (50% lethal concentration) (Colon carcinoma cell) [µM]	LC50 (lethal concentration 50%) [1] [µM]	LC50 (Melanoma cell) [µM]	CC50 (Homo sapiens) [µM]	LC50 (Ovarian carcinoma cell) [µM]	CC50 (Prostatic carcinoma cell) [µM]	CC50 (Renal cancer cell line) [µM]	CC50 [2] [µM]
CC(=O)OC1CCc2c3c(n(C(C)=O)c21)C(=O)C(N1CC1)=C(C)C3=O (stereo not drawn)	31.6	17.8	17	> 100	8.71	38	66.1	19.5	16.6	–
COC1CCc2c1[nH]c1c2C(=O)C(C)=C(N2CC2)C1=O (stereo not drawn)	46.8	67.6	47.9	87.1	12	63.1	> 100	34.7	–	26.3
CC(=O)OC1CCc2c1[nH]c1c2C(=O)C(C)=C(N2CC2)C1=O (stereo not drawn)	29.5	20	14.1	50.1	10.2	22.4	39.8	23.4	19.1	–
CC1=C(N2CC2)C(=O)c2c([nH]c(C)c2C)C1=O	–	–	–	–	–	51.3	–	> 100	–	> 100
CC(=O)OCc1[nH]c2c(c1C)C(=O)C(N1CC1)=C(C)C2=O	26.9	14.8	8.32	> 100	2.29	33.1	34.7	9.77	28.8	–
CC1=C(N2CC2)C(=O)c2[nH]c(C)c(C)c2C1=O	> 100	> 100	89.1	> 100	70.8	50.1	> 100	> 100	> 100	–
CC1=C(N2CC2)C(=O)c2[nH]c(CO)c(C)c2C1=O	89.1	89.1	63.1	> 100	39.8	79.4	> 100	63.1	–	58.9
CC1=C(N2CC2)C(=O)c2[nH]c3c(c2C1=O)CCC3=O	12.6	7.41	3.63	> 100	1.02	4.27	13.8	15.8	4.57	–
CC(=O)OCc1[nH]c2c(c1C)C(=O)C(C)=C(N1CC1)C2=O	> 100	> 100	> 100	> 100	70.8	79.4	> 100	> 100	–	72.4
CC1=C(N2CC2)C(=O)c2[nH]c3c(c2C1=O)CCC3O (stereo not drawn)	33.9	28.8	35.5	87.1	14.1	60.3	89.1	31.6	–	18.6
CC1=C(N2CC2)C(=O)c2c([nH]c(CO)c2C)C1=O	27.5	> 100	47.9	> 100	4.07	42.7	> 100	16.6	29.5	–
